Experimental data taken from publication PMC9818021, “Targets, Mechanisms and Cytotoxicity of Half-Sandwich Ir(III) Complexes Are Modulated by Structural Modifications on the Benzazole Ancillary Ligand” (Cancers, 2022).

Columns and labels:
A549 cells [1] = experiment: Cytochrome c release (FlowCellect kit); type: cell-based, human; settings: 5 h
Procedure: (§1) DNA damage was measured using EpiQuik 8-OHdG DNA Damage Quantification Direct Kit (colorimetric) (Fischer, Waltham, MA, USA, P600396); The mitochondrial cytochrome C release was evaluated using the “Millipore’s FlowCellect Cytochrome C Kit (Millipore, FCCH100110)”. Lactate dehydrogenase activity release was measured in the culture medium using Cytotoxicity Detection Kit (Roche Diagnostic, Barcelona, Spain, 11 644 793 001). Protein synthesis was determined using Click-iT Plus O-propargyl-puromycin (OPP) Protein Synthesis Assay Kit (Invitrogen™, Waltham, MA, USA). Measurement of GSH/GSSG was determined with GSH/GSSG-Glo Assay (Promega, V6611). Measurements of OCR and ECAR with Seahorse XFp (Agilent Technologies) were determined using the XFp Cell Mito Stress Test Kit (103010-100) and XFp Glycolysis Stress Test Kit (103017-100). ATP measurement was determined with Cell Titer-Glo Luminescent Cell Viability Assay (Promega, Madison, WI, USA, G7570). Determination of DNA damage using phosphorylated H2AX measurement were performed as previously described. Cardiolipin oxidation using the fluorophore Nonyl Acridine Orange (NAO, Thermo Scientific, A1372) was performed as described. Cell viability was determined by Hoechst inclusion and Propidium iodide (PI) exclusion by standard protocols. TEM analysis were performed as described. […]

A549-gal cells = experiment: Seahorse XFp Glycolysis Stress Test (ECAR); type: cell-based, human; settings: 16 µM
Procedure: Cell culture. Epithelial ovarian carcinoma cells (A2780) that acquired resistance to cisplatin epithelial ovarian carcinoma cells (A2780cis), colon adenocarcinoma cells (SW480) and epithelial lung adenocarcinoma cells (A549) were provided by Sigma Aldrich. A549 and SW480 cells were grown in Dulbecco′s Modified Eagle′s Medium (DMEM), supplemented with 10% Fetal Bovine Serum (FBS) and 1% penicillin, streptomycin and 1% glutamine for A549 and 1% amphotericin B for SW480. The A2780 and A2780cis were grown in RPMI 1640 supplemented with 10% Fetal Bovine Serum (FBS), 1% glutamine and 1% penicillin, streptomycin and amphotericin B. All cells were incubated in a humidified incubator at 37 °C under a 5% CO2 atmosphere and grown in 100 mm culture dishes to approximately 70–80% confluence. For subculturing, cells were detached with Trypsin-EDTA (Sigma). A549-gal were derived from A549 cultured in glucose-free medium supplemented with 10 mM galactose (Sigma) for at least 10 passes.
(§2) DNA damage was measured using EpiQuik 8-OHdG DNA Damage Quantification Direct Kit (colorimetric) (Fischer, Waltham, MA, USA, P600396); The mitochondrial cytochrome C release was evaluated using the “Millipore’s FlowCellect Cytochrome C Kit (Millipore, FCCH100110)”. Lactate dehydrogenase activity release was measured in the culture medium using Cytotoxicity Detection Kit (Roche Diagnostic, Barcelona, Spain, 11 644 793 001). Protein synthesis was determined using Click-iT Plus O-propargyl-puromycin (OPP) Protein Synthesis Assay Kit (Invitrogen™, Waltham, MA, USA). Measurement of GSH/GSSG was determined with GSH/GSSG-Glo Assay (Promega, V6611). Measurements of OCR and ECAR with Seahorse XFp (Agilent Technologies) were determined using the XFp Cell Mito Stress Test Kit (103010-100) and XFp Glycolysis Stress Test Kit (103017-100). ATP measurement was determined with Cell Titer-Glo Luminescent Cell Viability Assay (Promega, Madison, WI, USA, G7570). Determination of DNA damage using phosphorylated H2AX measurement were performed as previously described. Cardiolipin oxidation using the fluorophore Nonyl Acridine Orange (NAO, Thermo Scientific, A1372) was performed as described. Cell viability was determined by Hoechst inclusion and Propidium iodide (PI) exclusion by standard protocols. TEM analysis were performed as described. Cell cycle analysis by flow cytometry and microarrays analysis were performed as described. Arrays data have been deposited in the ArrayExpress database at EMBL-EBI (www.ebi.ac.uk/arrayexpress) under accession number E-MTAB-860 (10 November 2022)

A549 cells [2] = experiment: Lactate dehydrogenase release; type: cell-based, human; settings: 16 µM, 1% FBS
Procedure: as §1

A549 cells [3] = experiment: Seahorse XFp Cell Mito Stress Test (OCR); type: cell-based, human; settings: 16 µM, A549, 1 h
Procedure: as §2

[4] = tested on: A549-luc orthotopic lung tumor in athymic nude mice; experiment: Orthotopic lung cancer model (A549-luc); type: in vivo, mouse
Procedure: Orthotopic lung cancer model. Athymic nude mice were used. The model was developed following the protocol previously described. On day 20, treatment with the metal complex was started, and 4 doses were given every other day. Tumor growth was measured in vivo by luminescence (IVIS® Spectrum) on the days that the complexes were not administered, ending the experiment on day 37 with the sacrifice of the animal and the removal of organs. Organ indicators of metastases, lungs, and mediastinal lymph nodes were processed as previously described. Histological analyzes were performed as described.

A549 cells [5] = experiment: 8-OHdG DNA damage quantification; type: cell-based, human; settings: 16 μM, 4 h
Procedure: as §1

A549 cells [6] = experiment: Cell cycle analysis by flow cytometry; type: cell-based, human; settings: 8 µM, 24 h, PI staining
Procedure: as §1

A549 cells [7] = experiment: ATP levels (Cell Titer-Glo); type: cell-based, human; settings: 16 µM, 8 h incubation
Procedure: as §1

SW480 cells = experiment: Ir cellular uptake by ICP-MS; type: cell-based, human; settings: 2 µM, 24 h
Procedure: Quantification of Ir cellular uptake by ICP-MS (Inductively coupled plasma-mass spectrometry). Metal accumulation studies were conducted on the SW480 cell line. In these experiments, 3 × 10^5 cells were seeded in 12.5 cm^2 tissue culture flasks in drug-free medium and incubated for 24h at 37 °C in a 5% CO2 humidified atmosphere. Then, cells were treated with 2 µM of the iridium complexes. After 24 h of exposure, cells were washed twice with PBS and harvested. The pellets were resuspended in PBS, and 10 µL were used to count cells. Then, each resuspended pellet was digested in 65% HNO3 for 24 h. Finally, solutions were analyzed in a 7700 ICP-MS (Agilent Technologies, Palo Alto, CA, USA). Data is reported as the mean the standard deviation (n = 3).

[8] = 4 doses (0.9 mg/kg) on alternate days

In the case of `Cc1c(C)c(C)[c-](C)c1C.[Cl][Ir]1[c]2ccccc2-c2[nH]c3ccccc3[n+]21` [1[C,NH], [(η^5-Cp*)IrCl(κ^2-N,C-pbim)]], the Cytochrome c release (A549 cells [1]) is reported as “increased Cyt c release”, the “Acute Response, ECAR, Mean” value (A549-gal cells) is reported as 4.17 mpH/min and the “Glycolysis, ECAR, Mean” value (A549-gal cells) is reported as 44.81 mpH/min. For the same molecule, the “Glycolytic Capacity, ECAR, Mean” value (A549-gal cells) was 43.97 mpH/min, the “Glycolytic Reserve %, Mean” value (A549-gal cells) was 98.26% and the “Glycolytic Reserve, ECAR, Mean” value (A549-gal cells) was 2.48 mpH/min. The “Non-Glycolytic Acidification, ECAR, Mean” value (A549-gal cells) was 9.64 mpH/min, the “LDH release to the medium” value (A549 cells [2]) was “only began after 8 h of incubation” and the “ATP Production, OCR, Mean” value (A549 cells [3]) was 7.77 pmol/min. The “Basal Respiration, OCR, Mean” value (A549 cells [3]) was 57.35 pmol/min, the “Coupling Efficiency, Mean” value (A549 cells [3]) was 13.65 and the “Maximal Respiration, OCR, Mean” value (A549 cells [3]) was 47.24 pmol/min. The “Non-Mitochondrial Oxygen Consumption, OCR, Mean” value (A549 cells [3]) was 26.35 pmol/min, the “Proton Leak, OCR, Mean” value (A549 cells [3]) was 49.58 pmol/min and the “Spare Respiratory Capacity as a %, Mean” value (A549 cells [3]) was 80.93%. The “Spare Respiratory Capacity, OCR, Mean” value (A549 cells [3]) was 0.27 pmol/min, the “Body weight of treated mice” value [4, 8] was “did not lose weight” and the “Necropsy findings in non-tumor tissues” value [4, 8] was “no pathological evidence of relevance was detected in non-tumor tissues”. The “Luciferase activity in mediastinal nodes” value ([4]; 4 doses (0.9 mg/kg), day 37) was “lack of effect”, the “Luciferase activity in the primary tumor (lung extracts)” value ([4]; 4 doses (0.9 mg/kg), day 37) was “significantly reduced luciferase activity in the primary tumor” and the “Size of tumor foci (anti-CK7 immunohistochemistry)” value ([4]; 4 doses (0.9 mg/kg), day 37) was “strong effect on reducing the size of tumor foci”. The 8-OHdG levels (A549 cells [5]) was “increased after 4 h”, the Cell cycle distribution (A549 cells [6]) was “percentage of cells in G0/G1 phase increased and cells in G2/M phase decreased” and the “Decrease on ATP levels” value (A549 cells [7]) was “around 35%”.

With `Cc1c(C)c(C)[c-](C)c1C.[Cl][Ir]1[O]c2ccccc2-c2sc3ccccc3[n+]21` [8[CO,S], [(η^5-Cp*)IrCl(κ^2-O,N-hpbtz)]] the “Metal accumulation in SW480 cells” value (SW480 cells) was “highest accumulation”.
